{"source": "paper PMC6554663", "about": "“Pharmaceutical Effects of Inhibiting the Soluble Epoxide Hydrolase in Canine Osteoarthritis” (Frontiers in Pharmacology, 2019)", "key": {"Microsomal stability": {"test": "Microsomal stability", "assay_type": "in vitro ADME, dog", "details": "for % Parent + NADPH / % Parent − NADPH: 60 min, 37°C", "method": "Male and female dog liver microsomes (Xenotech) were diluted in potassium phosphate buffer (0.1M, pH 7.4), MgCl2 (3.15 mM), and sodium EDTA (1.05 mM) to a final protein concentration of 1 mg/mL. Compounds were added at 0.1 mM in methanol at 1% and microsomes were activated with 5% (v/v) NADPH regenerating system (100 μL sodium phosphate buffer (0.1M, pH 7.4), 50 μL, glucose-6-phosphate in sodium phosphate buffer (0.1M, pH 7.4), 50 μL NADP+ in sodium phosphate (0.1M, pH 7.4), and 50 μL of 100 Units/mL of […]). […] Compounds were incubated without microsomes or NADPH as negative controls."}, "[1]": {"test": "Blood and synovial fluid concentrations in treated osteoarthritic dogs;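 as to Synovial fluid concentration D1: synovial fluid also sampled on Day 1 after the pain assessment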", "assay_type": "in vivo, dog", "details": "for concentration at 2 h: beagle, dog, oral, EC1728 5 mg/kg; for Blood concentration D5 / Synovial fluid concentration D1 / Synovial fluid concentration D5: po, qd x 5, detected EC1728, individual dogs", "method": "(§1) Eight satellite dogs (2 per each group) had whole blood collected for PK analysis on study Days […]. On Day 1, blood was collected immediately prior to dosing, and again at 0.25, 0.5, 1, 2, 4, 6, and 8 (±5 min) after dosing. On Day 2 through 4, blood was collected 0.5 h (±5 min) after dosing. On Day 5 blood was collected immediately prior to dosing, and again at 0.25, 0.5, 1, 2, 4, 6, 8 (±5 min), 24, 48, and 72 h (±30 min) post treatment. […] For all blood samples, a minimum of 3 mL of whole blood was collected from a suitable vein as per written and approved standard operating procedures. The blood was transferred to K2EDTA (spray dried) blood tube and inverted gently multiple times to ensure proper mixing of the blood and anticoagulant. On study Day 5, synovial fluid was collected by arthrocentesis immediately after the subject completed the questionnaire (approximately […] after dosing). Subjects were anesthetized as per written and approved Standard Operating Procedures. A minimum of 0.1 mL of synovial fluid was collected from each subject. Samples were frozen in an upright position and stored at -80°C ± 4°C before being shipped to UC Davis for analysis.\nPain and function were assessed by a questionnaire answered by blinded technicians based on observation of study animals housed at InterVivo. The survey was adapted from the canine brief pain inventory (CBPI), which was developed based on clinical questionnaires in which owners score the function and pain level of their pets with existing pain conditions ([Brown et al., 2007]). Modifications to the questionnaire attempted to account for differences between owner pain evaluation of pets and pain evaluation of laboratory dogs by technical staff. For survey administration, blinded technicians attempted to elicit objective behavior-specific measures of function and pain level across a variety of normal canine behaviors (e.g., walking, trotting, galloping, rearing, and stair-climbing, etc.). For this, one technician was responsible for soliciting the relevant behaviors from a dog using encouragement and/or food rewards, while the evaluating technician scored function and observable pain using the modified CBPI questionnaire. Subjects were tested daily on Days -7 through -3, to develop baseline scores, and again on Days 1 through 5 administered 1.5 h after dosing. Dosing occurred in the morning, and observations were recorded 1.5 h after dosing, to limit time-of-day variability. Questions are listed in Supplementary Table S3. Animals in treatment groups had blood and synovial fluid collected ∼2 h after the last dose on day 5 (immediately following the study questionnaire) to confirm plasma concentrations in treated animals. Full pharmacokinetic assessments were collected from a satellite group of animals so as not to interfere with pain assessment."}, "[2]": {"test": "PK analysis in satellite dogs", "assay_type": "in vivo, dog", "details": "beagle, dog, whole blood; for AUC(0-t) / Cmax: detected EC1728, blood", "method": "as §1\nFor PK analysis in the satellite group, individual parameters were calculated by fitting blood concentrations to a non-compartmental analysis using Kinetica software (Thermo Fisher Scientific version 5.1). Using the log-linear trapezoidal method, the area under the curve were calculated and were extrapolated to infinity using the last measured plasma concentration (Clast), defined as the timepoint collected 72 h after the last dose or 8 hr after the first dose on day 1, divided by the terminal slope (λz)."}, "Solubility of sEHI": {"test": "Solubility of sEHI", "assay_type": "physicochemical", "details": "PEG300, organic solvent or mixture", "method": "[…] The non-dissolved compounds were filtered through a 0.22 μm centrifuge filter at 40°C and the supernatant was further diluted 10 times with methanol. The samples were analyzed by LC/MS-MS."}, "[3]": {"details": "female, po, 1 mg/kg, dosed EC1728 1 mg/kg oral qd, female dog, Day 1"}, "[4]": {"details": "female, po, 1 mg/kg, dosed EC1728 1 mg/kg oral qd, female dog, Day 5"}, "[5]": {"details": "female, po, 5 mg/kg, dosed EC1728 5 mg/kg oral qd, female dog, Day 1"}, "[6]": {"details": "female, po, 5 mg/kg, dosed EC1728 5 mg/kg oral qd, female dog, Day 5"}, "[7]": {"details": "male, po, 1 mg/kg, dosed EC1728 1 mg/kg oral qd, male dog, Day 1"}, "[8]": {"details": "male, po, 1 mg/kg, dosed EC1728 1 mg/kg oral qd, male dog, Day 5"}, "[9]": {"details": "male, po, 5 mg/kg, dosed EC1728 5 mg/kg oral qd, male dog, Day 1"}, "[10]": {"details": "male, po, 5 mg/kg, dosed EC1728 5 mg/kg oral qd, male dog, Day 5"}}, "note": "Several values for one entry are separate records, joined by “and”; a condition that tells them apart may be missing. Equal entries are not always repeated. Where two headings read alike, the source gives them in different places.", "data": [{"smiles": "O=C(Nc1ccc(OC(F)(F)F)cc1)N[C@H]1CC[C@H](Oc2ccc(C(=O)O)cc2)CC1", "note": "[EC1728, trans-4-{4-[3-(4-trifluoromethoxy-phenyl)-ureido]-cyclohexyloxy}-benzoic acid]", "values": [{"measurement": "% Parent + NADPH", "setting": "Microsomal stability; female dog liver microsomes", "value": "98 ± 6", "unit": "%"}, {"measurement": "% Parent − NADPH", "setting": "Microsomal stability; female dog liver microsomes", "value": "106 ± 9", "unit": "%"}, {"measurement": "% Parent + NADPH", "setting": "Microsomal stability; male dog liver microsomes", "value": "103 ± 6", "unit": "%"}, {"measurement": "% Parent − NADPH", "setting": "Microsomal stability; male dog liver microsomes", "value": "108 ± 8", "unit": "%"}, {"measurement": "remaining at 1 h, 1 µM", "setting": "Microsomal stability; pH 7.4, dog liver microsomes, 60-min incubation, sex not specified", "value": "> 95", "unit": "%"}, {"measurement": "concentration at 2 h", "setting": "[1]; blood, 5 mg/kg, day 5, group without dog 2.4, read-out: Blood concentration, average for the remainder of the group", "value": 395, "unit": "ng/mL"}, {"measurement": "concentration at 2 h", "setting": "[1]; synovial fluid, 5 mg/kg, day 5, read-out: Synovial fluid concentration, averaged for the group", "value": 988, "unit": "ng/mL"}, {"measurement": "concentration at 2 h", "setting": "[1]; synovial fluid, 5 mg/kg, dog 2.4 (low exposure, removed from analysis), read-out: Synovial fluid concentration, dog 2.4", "value": "80 to 95", "unit": "ng/mL"}, {"measurement": "Blood concentration D5", "setting": "[1]; dosed EC1728 1 mg/kg, 1 mg/kg", "value": "31 ng/mL and 72 ng/mL and 76 ng/mL and 64 ng/mL and 82 ng/mL and 40 ng/mL and 36 ng/mL and 171 ng/mL"}, {"measurement": "Synovial fluid concentration D1", "setting": "[1]; dosed EC1728 1 mg/kg, 1 mg/kg", "value": "331 ng/mL and 206 ng/mL and 455 ng/mL and 232 ng/mL and 483 ng/mL and 111 ng/mL and 384 ng/mL and 917 ng/mL"}, {"measurement": "Synovial fluid concentration D5", "setting": "[1]; dosed EC1728 1 mg/kg, 1 mg/kg", "value": "239 ng/mL and 206 ng/mL and 378 ng/mL and 328 ng/mL and 315 ng/mL and 171 ng/mL and 214 ng/mL and 945 ng/mL"}, {"measurement": "Blood concentration D5", "setting": "[1]; dosed EC1728 5 mg/kg, 5 mg/kg", "value": "34 ng/mL and 206 ng/mL and 348 ng/mL and 314 ng/mL and 935 ng/mL and 228 ng/mL and 493 ng/mL and 244 ng/mL"}, {"measurement": "Synovial fluid concentration D1", "setting": "[1]; dosed EC1728 5 mg/kg, 5 mg/kg", "value": "2270 ng/mL and 301 ng/mL and 1180 ng/mL and 2220 ng/mL and 1470 ng/mL and 460 ng/mL and 95 ng/mL"}, {"measurement": "Synovial fluid concentration D5", "setting": "[1]; dosed EC1728 5 mg/kg, 5 mg/kg", "value": "1000 ng/mL and 1150 ng/mL and 833 ng/mL and 1330 ng/mL and 672 ng/mL and 668 ng/mL and 2170 ng/mL and 80 ng/mL"}, {"measurement": "half-life", "setting": "[2]; oral, satellite dogs, range over both compounds, Table 3, read-out: half-life", "value": "24 to 40", "unit": "h"}, {"measurement": "AUC(0-t)", "setting": "[2]; [3]", "value": 1350, "unit": "ng·h/mL"}, {"measurement": "Cmax", "setting": "[2]; [3]", "value": 308, "unit": "ng/mL"}, {"measurement": "AUC(0-t)", "setting": "[2]; [4]", "value": 155000, "unit": "ng·h/mL"}, {"measurement": "Cmax", "setting": "[2]; [4]", "value": 4660, "unit": "ng/mL"}, {"measurement": "half-life", "setting": "[2]; female, po, 1 mg/kg, read-out: T1/2 (converted)", "value": 33, "unit": "h"}, {"measurement": "AUC(0-t)", "setting": "[2]; [5]", "value": 4940, "unit": "ng·h/mL"}, {"measurement": "Cmax", "setting": "[2]; [5]", "value": 1160, "unit": "ng/mL"}, {"measurement": "AUC(0-t)", "setting": "[2]; [6]", "value": 53200, "unit": "ng·h/mL"}, {"measurement": "Cmax", "setting": "[2]; [6]", "value": 4990, "unit": "ng/mL"}, {"measurement": "half-life", "setting": "[2]; female, po, 5 mg/kg, read-out: T1/2 (converted)", "value": 23, "unit": "h"}, {"measurement": "AUC(0-t)", "setting": "[2]; [7]", "value": 1690, "unit": "ng·h/mL"}, {"measurement": "Cmax", "setting": "[2]; [7]", "value": 330, "unit": "ng/mL"}, {"measurement": "AUC(0-t)", "setting": "[2]; [8]", "value": 32000, "unit": "ng·h/mL"}, {"measurement": "Cmax", "setting": "[2]; [8]", "value": 1900, "unit": "ng/mL"}, {"measurement": "half-life", "setting": "[2]; male, po, 1 mg/kg, read-out: T1/2 (converted)", "value": 27, "unit": "h"}, {"measurement": "AUC(0-t)", "setting": "[2]; [9]", "value": 3760, "unit": "ng·h/mL"}, {"measurement": "Cmax", "setting": "[2]; [9]", "value": 1100, "unit": "ng/mL"}, {"measurement": "AUC(0-t)", "setting": "[2]; [10]", "value": 96300, "unit": "ng·h/mL"}, {"measurement": "Cmax", "setting": "[2]; [10]", "value": 1930, "unit": "ng/mL"}, {"measurement": "half-life", "setting": "[2]; male, po, 5 mg/kg, read-out: T1/2 (converted)", "value": 25, "unit": "h"}, {"measurement": "solubility", "setting": "Solubility of sEHI", "value": "97 ± 2", "unit": "mg/mL"}]}]}
